Substitutions are numbered along the chain they refer to. “Also recorded” adds a separate entry of the source. Each block holds one molecule with its values, some of them ahead of it.
Key:
[1] = tested on: TA*p63α in Sum159 cells; experiment: BN-PAGE of Sum159 lysate, oligomeric state of endogenous TA*p63α; format: cell-based, human; settings: 10 µM Dox, different periods of time, BN-PAGE (3–12%)
Protocol: (§1) Immunoprecipitation was performed with two different p63 specific antibodies, AHP1815 (BioRad) and ab124267 (Abcam). For detection on WB, the p63α XP (D2K8X, cell signaling) antibody was used. b Specific TA*-peptides were found in two independent IP-MS analyses of immunoprecipitated p63 from Sum159 cells. Immunoprecipitation was performed with the p63 antibody ab124267 (Abcam). Two different types of mass spectrometers relying on different fragmentation and detection approaches were used for the experiments (IT: ion trap, CID: collision induced dissociation, FT: Fourier transform, HCD: higher-energy collisional dissociation). c BN-PAGE (3–12%) of Sum159 lysate followed by western blotting for TA*p63α. […] Cells were treated with 1.5 µM Dox or DMSO for 24 h (six-well plate) and cultured for additional 24–30 h. Sum159 cells were fixed with glutaraldehyde (6%) and stained with crystal violet (0.5%)
To test whether TA*p63α can be activated in Sum159 cells by chemotherapeutic agents and induce apoptosis we treated cells with 10 µM Dox. […] Furthermore, the apoptosis marker cleaved PARP and cleaved Caspase3 are detectable starting 4 h following treatment (Supplementary Fig. S8). We also investigated cell survival.

[2] = tested on: Sum159 cells; experiment: Western blot, apoptosis markers cleaved PARP and cleaved Caspase3 in Sum159 cells; format: cell-based, human; settings: 10 µM Dox, immunoblotting
Protocol: (§2) 4–15 or 7.5% SDS–PAGE Mini-PROTEAN TGX gels (BioRad) were blotted using the semidry Trans-Blot Turbo Transfer system (BioRad).The following antibodies were prepared in 5% milk in TBS-T and incubated overnight at 4 °C: anti-Myc (1:1000, clone 4A6, Millipore), anti-p63 (1:2500, ab124762, Abcam), anti-p63α XP (1:1000, D2K8X, Cell Signaling), anti-GAPDH (1:20,000, clone 6C5, Merck), anti-p53 (1:500, DO-1, Santa Cruz), anti-PARP (1:1000, 9542, Cell Signaling), anti-cleaved caspase3 (1:1000, 5A1E,Cell Signaling), and anti-vinculin (1:1000, clone 7F9, Santa Cruz). Secondary antibodies, used for detection, were also prepared in 5% milk in TBS-T and incubated for 1 h at RT (goat anti-mouse HRP, 1:5000, A9917, Sigma–Aldrich; goat anti-rabbit HRP, 1:2000, Jackson Immuno Research Europe Ltd., 111–035–144). Quantification of western blot signals was performed by using ImageJ.
(§3) Supplementary Figure S8 Dox treatment induces apoptosis in the breast cancer cell line Sum159. SDS-PAGEs followed by immunoblotting of Dox treated (10 µM) Sum159 cells. (a) Western blot was analyzed for the apoptosis markers PARP (#9542, Cell Signaling) and caspase 3 (5A1E, Cell Signaling). PARP and caspase3 cleavage were detectable starting at 4 h following treatment. (b) Mutant p53 (DO-1, Santa Cruz) and TA*p63α (D2K8X, Cell Signaling) levels were also investigated. […] GAPDH was used as loading control.

[3] = tested on: Sum159 cells; experiment: Cell survival assay of Sum159 cells (crystal violet); format: cell-based, human; settings: 1.5 µM Dox for 24 h, cultured for additional 24 h (24–30 h in method), vs DMSO
Protocol: as §1
Sum159 cells were seeded in a six-well plate. Two days after seeding, cells were treated either with 1.5 µM Dox or DMSO for 24 h. The medium was changed and cells were cultured for additional 24–30 h. Afterwards, cells were washed three times with PBS and the fixation and staining solution (0.5% crystal violet, 6% glutaraldehyde) was incubated 1–2 h at RT. The solution was aspirated and the fixed cells were washed about five times with H2O and dried for 1–2 days at RT.

[4] = tested on: TA*p63α in Sum159 cells; experiment: Western blot, TA*p63α level in Sum159 cells; format: cell-based, human; settings: 10 µM Dox, immunoblotting (D2K8X)
Protocol: as §2, §3

[5] = tested on: mutant p53 in Sum159 cells; experiment: Western blot, mutant p53 level in Sum159 cells; format: cell-based, human; settings: 10 µM Dox, mutant p53, immunoblotting (DO-1)
Protocol: as §2, §3

[6] = tested on: TAp63α; experiment: BN-PAGE oligomeric state of TAp63α upon Dox treatment
Protocol: (§4) As a control, we used the S582/S583A mutants, which remove the Chk2 priming site preventing tetramerization[13].
(§5) Three hundred nanogram expression vector carrying the p63α gene were transiently transfected in U2OS cells (12-well plate). The next day, cells were treated with 10 µM Dox for 6 h. Migration of the different oligomeric states is indicated by T (tetramer), D (dimer), and M (monomer). […] Western blot analysis was carried out using an anti-myc antibody (4A6, Merck). Cells were pre-incubated with increasing Chk2 (BML-277, Merck) or CK1 inhibitor (PF670462, Sigma–Aldrich) concentrations (5, 25, 50 µM) for 1 h. Afterwards, 10 µM Dox was added and cells were harvested 6 h later. Migration of the different oligomeric states is indicated by T (tetramer), D (dimer), and M (monomer). Vinculin was used as loading control. Protein levels loaded on BN-PAGE were adjusted to equal p63 amounts by prior western blot analysis. SDS-PAGE to detect phosphoshifts were not input adjusted
(§6) H1299 cells were transfected using the Qiagen Effectene kit according to the manufacturer’s manual in a 12-well plate or H1299 cells stably expressing p63 isoforms were used. Cells were harvested and lysed in NP lysis buffer (20 mM Tris, 150 mM NaCl, 2 mM MgCl2, 20 mM CHAPS, 1 mM DTT, complete protease inhibitor cocktail (Roche), PhosSTOP (Roche) pH 7.4 or pH 8.0). Benzonase (Merck) was added and samples were lysed on ice for 1 h. BN-PAGE (3–12%, Thermo Fisher Scientific) was performed and blotted as previously described[17],[35]. Protein levels loaded on BN-PAGE were adjusted to equal p63 amounts by prior western blot analysis. SDS-PAGE to detect phosphoshifts were not input adjusted.
(§7) 300 ng expression vector carrying the p63 gene were transiently transfected in H1299 cells (12-well plate). The next day, cells were treated with 10 µM Dox for 6 h. Migration of the different oligomeric states is indicated by T (tetramer), D (dimer) and M (monomer). […] Stably p63 expressing H1299 were treated with 10 µM Dox for up to 10 h. Protein levels loaded on BN-PAGE were adjusted to equal p63 amounts by prior western blot analysis. SDS-PAGE to detect phosphoshifts were not input adjusted.

[7] = tested on: TA*p63α; experiment: BN-PAGE oligomeric state of TA*p63α upon Dox treatment
Protocol: as §4, §5, §6, §7

[8] = tested on: GTAp63α; experiment: BN-PAGE oligomeric state of GTAp63α upon Dox treatment
Protocol: as §4, §5, §6, §7

[9] = target: TAp63α FWL; experiment: SEC; in vitro translated protein in rabbit reticulocyte lysate on Superose 6 3.2/300, 50 mM sodium phosphate pH 7.8, 100 mM NaCl, 4 °C; fractions analysed by western blot
[10] = target: the molecule itself; experiment: as above
[11] = target: the molecule itself; experiment: native gel or EMSA; Blue-Native PAGE (3-12%) of Sum159 lysate, endogenous protein, before doxorubicin
[12] = target: the molecule itself; experiment: native gel or EMSA; Blue-Native PAGE (3-12%) of Sum159 lysate, endogenous protein, cells treated with 10 µM doxorubicin for different periods of time
[13] = target: GTA-GTA* peptide (1′-37′) (not stated (isoform of humans and great apes)); experiment: fluorescence polarisation; fluorescence anisotropy; 100 nM N-terminally fluorescein-labelled peptide, increasing concentration of Taz2; 22 °C; two site specific binding fit
[14] = target: T1, TA*-GTA* peptide (1*-39*) (fluorescein on the N-terminus); experiment: as above; settings: both partners purified
T1 chain: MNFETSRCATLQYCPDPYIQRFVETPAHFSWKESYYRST

[15] = H1299 stably expressing, 10 µM Dox for up to 10 h, BN-PAGE (Supplementary Fig. S4c)
[16] = transfected U2OS and H1299 cells, 10 µM Dox, 6 h, BN-PAGE

Molecule: COc1cccc2c1C(=O)c1c(O)c3c(c(O)c1C2=O)C[C@@](O)(C(=O)CO)C[C@@H]3O[C@H]1C[C@H](N)[C@H](O)[C@H](C)O1 [Dox, doxorubicin]
- shift of oligomeric state of TA*p63α in Sum159 cells [1]: activated upon Dox treatment; also recorded: shifted from the inactive, dimeric to the active, tetrameric form
- shift of oligomeric state of TA*p63α in Sum159 cells ([1]; listed as doxorubicin): TA*p63α gets activated
- time from which cleaved Caspase3 is detectable [2]: 4 h
- time from which cleaved PARP is detectable [2]: 4 h
- cell survival (cell density) [3]: clear decrease in cell density
- p63 level during treatment [4]: A decrease in p63 and p53 level is detectable
- p53 level during treatment [5]: A decrease in p63 and p53 level is detectable
- tetramer/dimer ratio following Dox, TAp63α [6, 15]: almost completely converted into tetramers
- time after which TAp63α becomes partly tetrameric ([6]; tetramerization kinetics, H1299 stably expressing, 10 µM Dox for up to 10 h): 1 h
- activation to tetrameric state, TAp63α [6, 16]: activates all three isoforms to adopt tetrameric states
- tetramer/dimer ratio following Dox, TA*p63α [7, 15]: do not achieve predominant tetramerization like TAp63α; also recorded: significant population of the dimeric state; also recorded: do not reach the high tetramer/dimer ratio seen with TAp63α
- activation to tetrameric state, TA*p63α [7, 16]: activates all three isoforms to adopt tetrameric states
- tetramer/dimer ratio following Dox, GTAp63α [8, 15]: do not achieve predominant tetramerization like TAp63α; also recorded: significant population of the dimeric state; also recorded: do not reach the high tetramer/dimer ratio seen with TAp63α
- activation to tetrameric state, GTAp63α [8, 16]: activates all three isoforms to adopt tetrameric states

B2: TA*p63α (natural protein, human (endogenous in Sum159), UniProt Q9H3D4-1 1-680, looked up)
chain: MNFETSRCATLQYCPDPYIQRFVETPAHFSWKESYYRSTMSQSTQTNEFLSPEVFQHIWDFLEQPICSVQPIDLNFVDEPSEDGATNKIEISMDCIRMQDSDLSDPMWPQYTNLGLLNSMDQQIQNGSSSTSPYNTDHAQNSVTAPSPYAQPSSTFDALSPSPAIPSNTDYPGPHSFDVSFQQSSTAKSATWTYSTELKKLYCQIAKTCPIQIKVMTPPPQGAVIRAMPVYKKAEHVTEVVKRCPNHELSREFNEGQIAPPSHLIRVEGNSHAQYVEDPITGRQSVLVPYEPPQVGTEFTTVLYNFMCNSSCVGGMNRRPILIIVTLETRDGQVLGRRCFEARICACPGRDRKADEDSIRKQQVSDSTKNGDGTKRPFRQNTHGIQMTSIKKRRSPDDELLYLPVRGRETYEMLLKIKESLELMQYLPQHTIETYRQQQQQQHQHLLQKQTSIQSPSSYGNSSPPLNKMNSMNKLPSVSQLINPQQRNALTPTTIPDGMGANIPMMGTHMPMAGDMNGLSPTQALPPPLSMPSTSHCTPPPPYPTDCSIVSFLARLGCSSCLDYFTTQGLTTIYQIEHYSMDDLASLKIPEQFRHAIWKGILDHRQLHEFSSPSHLLRTPSSASTVSVGSSETRGERVIDAVRFTLRQTISFPPRDEWNDFNFDMDARRNKQQRIKEEGE
notes: also called endogenous TA*p63α of Sum159 cells; source: endogenous, Sum159 lysate
- stoichiometry N [11]: 2
- stoichiometry N [12]: 4

Second part, led by results:

- stoichiometry N [9]: 4
B1: TA*p63α FWL (natural protein, UniProt Q9H3D4-1 1-680, looked up)
chain: B2 chain with F55A, W59A, L62A
notes: TA*p63α: another translation start site adds 39 aa N-terminally to TAp63α; also called FWL mutant of TA*p63α; source: in vitro translated (rabbit reticulocyte lysate); not shown: myc, N-terminal, kept
- stoichiometry N [10]: 2

- Kd [13]: 4.79 µM
- Kd [14]: 13.2 ± 0.93 µM
B3: p300 Taz2 domain (domain or fragment)
chain: ATQSPGDSRRLSIQRCIQSLVHACQCRNANCSLPSCQKMKRVVQHTKGCKRKTNGGCPICKQLIALCCYHAKHCQENKCPVPFCLNIKQK

— PMC6746776, “TA*p63 and GTAp63 achieve tighter transcriptional regulation in quality control by converting an inhibitory element into an additional transactivation domain” (Cell Death & Disease, 2019)
